Data: ChEMBL document CHEMBL1201862, “PubChem BioAssay data set” (2004)
Calls of active or inactive are those of the source.

Experiments:
[1] = intracellular Trypanosoma cruzi inhibitors in host cells – cell-based, plate reader, cherry-pick samples, set 3, dose response (AID 651818); assay type: functional;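 further: compounds incubated with infected cells for about four days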
Cytochrome P450 3A4 [2] = molecular target: T1, Cytochrome P450 3A4 (Homo sapiens, UniProt P08684); conditions: Potency
[3] = A cytotoxicity screen of small molecule inhibitors of the PhoP region in Salmonella typhi identified in the primary screen. [Related pubchem assays: 1850, 1864, 1985 ]; assay type: functional
Protein skinhead-1 = molecular target: T2, Protein skinhead-1 (Caenorhabditis elegans, UniProt P34707); assay type: functional
T2 sequence (P34707 whole entry): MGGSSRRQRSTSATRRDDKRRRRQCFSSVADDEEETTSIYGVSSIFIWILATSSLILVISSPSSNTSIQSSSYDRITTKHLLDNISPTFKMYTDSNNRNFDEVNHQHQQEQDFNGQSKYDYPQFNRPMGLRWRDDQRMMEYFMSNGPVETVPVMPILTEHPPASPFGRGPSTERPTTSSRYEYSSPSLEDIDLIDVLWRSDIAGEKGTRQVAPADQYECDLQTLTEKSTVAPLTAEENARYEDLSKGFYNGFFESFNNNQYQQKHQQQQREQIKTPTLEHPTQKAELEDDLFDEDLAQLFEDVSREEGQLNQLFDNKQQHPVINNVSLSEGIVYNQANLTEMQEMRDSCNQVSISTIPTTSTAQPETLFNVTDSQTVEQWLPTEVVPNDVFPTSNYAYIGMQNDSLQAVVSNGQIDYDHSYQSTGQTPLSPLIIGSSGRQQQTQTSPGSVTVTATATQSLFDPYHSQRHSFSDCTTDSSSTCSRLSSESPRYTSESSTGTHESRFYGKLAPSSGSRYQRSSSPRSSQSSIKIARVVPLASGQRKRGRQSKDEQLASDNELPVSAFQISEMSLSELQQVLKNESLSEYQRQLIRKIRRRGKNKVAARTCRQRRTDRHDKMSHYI

[4] = HEK-293T viability loss after treatment – luminescence, T-cell screen hits, cytotoxicity control for TCR NF-kB inhibitor project, dose response (AID 489026); assay type: functional, cell-based;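 further: cells exposed to compound about 14 hours before the viability readout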
[5] = Luminescence Cell-Based Dose Retest to Confirm Inhibitors of Cancer Stem Cells. [Related pubchem assays (depositor defined):AID2717, AID2721]; assay type: functional; conditions: Homo sapiens
[6] = Trypanosoma cruzi growth suppression in host cells – NIH3T3 host cells, beta-gal luminescence, confirmation (AID 2044); assay type: functional, cell-based;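 further: intracellular parasites grown in NIH/3T3 mouse fibroblasts as host cells; luminescent beta-galactosidase reporter signal from transgenic T. cruzi replicating inside host cells; inhibitors lower the luminescence signal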
Nonstructural protein 1 = Nonstructural protein 1 (Influenza A virus, UniProt Q194T2); assay type: functional, Influenza A virus (A/California/07/2009(H1N1))
Leucine aminopeptidase = molecular target: T3, Leucine aminopeptidase (Plasmodium falciparum 3D7, UniProt Q8IL11); test: P. falciparum M17LAP inhibitors, primary screen, biochemical, fluorogenic H-Leu-NHMec substrate, 1536-well (AID 1619); assay type: functional
T3 sequence (Q8IL11 whole entry): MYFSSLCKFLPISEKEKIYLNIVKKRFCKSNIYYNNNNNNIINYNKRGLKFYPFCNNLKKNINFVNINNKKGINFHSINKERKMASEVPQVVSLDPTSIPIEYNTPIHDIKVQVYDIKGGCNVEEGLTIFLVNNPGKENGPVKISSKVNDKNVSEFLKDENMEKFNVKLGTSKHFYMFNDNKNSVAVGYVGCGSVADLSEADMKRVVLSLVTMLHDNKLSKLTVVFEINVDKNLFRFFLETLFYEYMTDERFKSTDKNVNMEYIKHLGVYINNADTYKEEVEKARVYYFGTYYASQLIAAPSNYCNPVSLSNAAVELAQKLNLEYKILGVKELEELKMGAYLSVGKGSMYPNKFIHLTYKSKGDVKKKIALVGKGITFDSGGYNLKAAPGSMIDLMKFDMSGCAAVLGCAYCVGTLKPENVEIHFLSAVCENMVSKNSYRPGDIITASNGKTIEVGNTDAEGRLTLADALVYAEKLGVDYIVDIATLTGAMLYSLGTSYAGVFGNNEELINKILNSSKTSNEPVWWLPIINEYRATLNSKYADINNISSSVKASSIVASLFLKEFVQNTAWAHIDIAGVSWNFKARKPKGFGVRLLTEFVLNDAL

[7] = molecular target: T4, Calpain-2 catalytic subunit (Sus scrofa, UniProt P43367); test: m-calpain protease blockers, concentration series – biochemical, fluorogenic peptide substrate, dose response (AID 1420); assay type: functional
T4 sequence (P43367 whole entry): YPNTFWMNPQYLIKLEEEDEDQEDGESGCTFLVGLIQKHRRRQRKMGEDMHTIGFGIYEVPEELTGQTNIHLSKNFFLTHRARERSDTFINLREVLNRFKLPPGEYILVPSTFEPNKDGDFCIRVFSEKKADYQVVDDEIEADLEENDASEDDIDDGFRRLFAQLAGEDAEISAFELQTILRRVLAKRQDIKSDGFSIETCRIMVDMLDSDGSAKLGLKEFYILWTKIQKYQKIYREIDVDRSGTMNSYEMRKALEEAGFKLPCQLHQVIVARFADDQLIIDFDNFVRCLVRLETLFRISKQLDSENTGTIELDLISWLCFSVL

[8] = molecular target: Induced myeloid leukemia cell differentiation protein Mcl-1 (Homo sapiens, UniProt Q07820); assay type: functional
Cytochrome P450 2D6 = Cytochrome P450 2D6 (Homo sapiens, UniProt P10635);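 further: CYP2D6 member of a cytochrome P450 panel assay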
Cytochrome P450 3A4 [9] = molecular target: T1, Cytochrome P450 3A4
Genome polyprotein = Genome polyprotein (dengue virus type 2, UniProt P29990); test: flavivirus cap methylation enzyme inhibition – biochemical, confirmation dose response, primary screen (AID 588689); assay type: functional
Vero = test: viability of Vero cells under compound – cytotoxicity control for flavivirus capping enzyme inhibitors (AID 588742); assay type: functional; conditions: Chlorocebus sabaeus
[10] = viability of uninfected HEp-2 cells – cell-based, HTS, cytotoxicity control for RSV inhibitor project, dose response (AID 2410); assay type: functional; conditions: human respiratory syncytial virus
[11] = HIV-1 AD8 envelope cell-cell fusion blockers – cherry-pick, dose response (AID 652062); assay type: functional, cell-based;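 further: luciferase signal from cell-cell fusion driven by HIV-1 clade B AD8 Env; potency is for inhibitors of fusion seen as a drop in luminescence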
[12] = blockers of HIV-1 envelope-mediated cell-cell fusion – cherry-pick, dose response (AID 652057); assay type: functional, cell-based
[13] = viability loss in CEM21 cells – cell-based, CellTiter-Glo luminescence, cherry-picked, cytotoxicity control for viral fusion inhibitor project, dose response (AID 652042); assay type: functional;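 further: potency for signal decrease meaning cytotoxicity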
[14] = blockers of HIV-1 ZM109 envelope-driven cell-cell fusion – HeLa effector, CEM target cells, luciferase, cherry-pick, dose response (AID 652058); assay type: functional, cell-based;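 further: luciferase signal from HIV-1 Env mediated cell-cell fusion of effector and target cells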
cells = assay type: functional
[15] = molecular target: Glyceraldehyde-3-phosphate dehydrogenase (Homo sapiens, UniProt P04406)
[16] = molecular target: Heat shock protein HSP 90-alpha (Homo sapiens, UniProt P07900); assay type: functional, organism-based

Sequence of Nonstructural protein 1 (Q194T2 whole entry): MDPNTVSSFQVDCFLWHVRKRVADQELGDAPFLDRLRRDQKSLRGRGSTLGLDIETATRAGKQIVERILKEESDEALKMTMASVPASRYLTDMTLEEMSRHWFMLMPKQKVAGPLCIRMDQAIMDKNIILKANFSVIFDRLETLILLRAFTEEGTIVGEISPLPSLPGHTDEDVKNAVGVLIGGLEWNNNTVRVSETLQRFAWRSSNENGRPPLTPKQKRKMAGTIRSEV
T1 sequence (P08684 whole entry): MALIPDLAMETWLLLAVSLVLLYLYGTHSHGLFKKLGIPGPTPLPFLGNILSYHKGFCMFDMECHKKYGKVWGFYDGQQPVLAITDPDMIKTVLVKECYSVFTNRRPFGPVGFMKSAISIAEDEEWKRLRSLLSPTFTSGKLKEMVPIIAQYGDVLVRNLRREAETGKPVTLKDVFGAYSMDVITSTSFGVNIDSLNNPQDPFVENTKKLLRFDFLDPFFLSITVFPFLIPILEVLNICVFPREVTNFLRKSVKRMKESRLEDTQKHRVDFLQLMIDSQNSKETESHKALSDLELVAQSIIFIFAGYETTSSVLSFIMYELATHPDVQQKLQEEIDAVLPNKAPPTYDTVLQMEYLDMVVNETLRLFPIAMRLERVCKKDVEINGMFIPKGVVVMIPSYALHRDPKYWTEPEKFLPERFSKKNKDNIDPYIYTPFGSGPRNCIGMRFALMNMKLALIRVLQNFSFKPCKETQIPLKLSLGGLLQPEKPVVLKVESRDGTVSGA
Sequence of Induced myeloid leukemia cell differentiation protein Mcl-1 (Q07820 whole entry): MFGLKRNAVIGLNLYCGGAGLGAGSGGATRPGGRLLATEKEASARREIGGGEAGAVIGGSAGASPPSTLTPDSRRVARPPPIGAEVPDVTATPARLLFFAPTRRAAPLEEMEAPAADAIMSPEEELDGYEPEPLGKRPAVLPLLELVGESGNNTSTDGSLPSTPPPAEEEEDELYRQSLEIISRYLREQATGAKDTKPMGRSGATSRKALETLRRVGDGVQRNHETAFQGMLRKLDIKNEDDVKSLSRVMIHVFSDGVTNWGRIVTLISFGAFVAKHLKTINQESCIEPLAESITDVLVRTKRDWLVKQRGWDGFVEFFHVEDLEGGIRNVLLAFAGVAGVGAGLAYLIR
Sequence of Genome polyprotein (P29990 2492-3391 limits assumed): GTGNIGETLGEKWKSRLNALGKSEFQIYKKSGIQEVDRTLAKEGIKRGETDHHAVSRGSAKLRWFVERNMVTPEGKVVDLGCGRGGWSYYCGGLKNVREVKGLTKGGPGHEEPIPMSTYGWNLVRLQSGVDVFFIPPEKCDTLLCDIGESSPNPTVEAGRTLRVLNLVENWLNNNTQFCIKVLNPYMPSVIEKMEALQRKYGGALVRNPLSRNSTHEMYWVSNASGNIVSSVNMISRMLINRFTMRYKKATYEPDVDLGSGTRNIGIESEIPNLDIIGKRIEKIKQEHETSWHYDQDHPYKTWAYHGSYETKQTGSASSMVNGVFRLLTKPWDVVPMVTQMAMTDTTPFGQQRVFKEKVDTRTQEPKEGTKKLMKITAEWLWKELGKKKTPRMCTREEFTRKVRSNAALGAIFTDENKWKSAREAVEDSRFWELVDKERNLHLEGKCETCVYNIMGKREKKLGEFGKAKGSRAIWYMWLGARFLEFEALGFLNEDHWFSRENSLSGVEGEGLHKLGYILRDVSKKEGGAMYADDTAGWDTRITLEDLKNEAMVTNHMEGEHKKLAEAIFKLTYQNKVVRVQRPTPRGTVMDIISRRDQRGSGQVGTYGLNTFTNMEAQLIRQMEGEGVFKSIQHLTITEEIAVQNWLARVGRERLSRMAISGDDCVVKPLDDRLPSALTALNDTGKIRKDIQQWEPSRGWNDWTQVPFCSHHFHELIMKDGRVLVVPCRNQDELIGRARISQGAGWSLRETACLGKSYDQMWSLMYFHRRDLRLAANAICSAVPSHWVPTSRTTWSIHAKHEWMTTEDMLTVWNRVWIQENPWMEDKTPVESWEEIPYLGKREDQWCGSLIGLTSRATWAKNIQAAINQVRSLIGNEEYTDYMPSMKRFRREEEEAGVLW
Sequence of Glyceraldehyde-3-phosphate dehydrogenase (P04406 whole entry): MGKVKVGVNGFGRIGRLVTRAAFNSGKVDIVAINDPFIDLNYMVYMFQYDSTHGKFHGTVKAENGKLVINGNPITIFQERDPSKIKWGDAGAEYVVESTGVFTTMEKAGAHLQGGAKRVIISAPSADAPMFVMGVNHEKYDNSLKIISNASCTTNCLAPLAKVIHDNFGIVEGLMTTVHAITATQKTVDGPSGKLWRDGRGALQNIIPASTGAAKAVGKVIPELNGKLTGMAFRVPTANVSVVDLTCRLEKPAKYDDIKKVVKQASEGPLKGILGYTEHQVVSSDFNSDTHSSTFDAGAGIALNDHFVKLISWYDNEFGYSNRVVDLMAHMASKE
Sequence of Cytochrome P450 2D6 (P10635 whole entry): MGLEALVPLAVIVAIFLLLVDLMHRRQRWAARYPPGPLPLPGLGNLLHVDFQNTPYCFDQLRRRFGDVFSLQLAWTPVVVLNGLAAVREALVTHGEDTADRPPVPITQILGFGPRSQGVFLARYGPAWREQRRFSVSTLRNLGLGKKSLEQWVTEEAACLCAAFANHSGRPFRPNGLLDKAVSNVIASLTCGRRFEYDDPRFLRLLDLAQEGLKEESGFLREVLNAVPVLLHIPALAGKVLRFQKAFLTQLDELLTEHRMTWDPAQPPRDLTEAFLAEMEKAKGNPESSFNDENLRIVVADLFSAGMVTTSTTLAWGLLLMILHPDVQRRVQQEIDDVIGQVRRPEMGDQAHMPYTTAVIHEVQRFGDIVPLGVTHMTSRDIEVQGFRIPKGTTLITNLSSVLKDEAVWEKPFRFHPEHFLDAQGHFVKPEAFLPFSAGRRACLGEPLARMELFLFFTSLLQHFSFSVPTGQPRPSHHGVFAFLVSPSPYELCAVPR

In the case of `C[C@@H]1CCCCO[C@H](CN(C)Cc2ccc(C(=O)Nc3ccccc3N)cc2)[C@@H](C)CN([C@H](C)CO)C(=O)c2cc(NS(=O)(=O)c3ccc(F)cc3)ccc2O1`, the AC50 [1] is reported as 1.83 µM (active).

For `Cc1nc(N2CCOCC2)c2nc(-c3ccccc3)n(CCCN3CCCCC3C)c2n1` (centres undefined), the AC50 (Cytochrome P450 3A4 [2]) was 15.8 µM (inconclusive).

For `CC(=O)OC1=C(O)C(=O)c2ccccc2C1=O`, the EC50 [3] was > 50 µM (active).

For `COc1ccc(OC2C=CC(c3ccccc3)OC2CO)c(C(C)=O)c1` (centres undefined), the AC50 (Cytochrome P450 3A4 [2]) was 3.98 µM (inconclusive).

For `O=C(C[n+]1ccc(-c2ccccc2)cc1)Nc1ccc([N+](=O)[O-])cc1`, the EC50 [3] was > 50 µM (active).

In the case of `O=C(Nc1nc2ccccc2s1)c1ccccc1`, the IC50 (Protein skinhead-1) is reported as > 100 µM (inactive).

In the case of `COC(=O)CCC(=O)NC(=S)Nc1sc(C)c(C)c1C(N)=O`, the IC50 [4] is reported as > 80 µM (inactive).

With `C/C=C(\C)C(=O)N[C@@H](c1ccccc1)[C@@H](O)C(=O)O[C@H]1C[C@@]2(O)[C@@H](OC(=O)c3ccccc3)C3[C@](C)(C(=O)[C@H](OC(C)=O)C(=C1C)C2(C)C)[C@@H](O)C[C@H]1OC[C@@]31OC(C)=O` (some centres undefined) the IC50 [4] was > 80 µM (inactive).

For `CC(C)N1C(=O)/C(=C\c2nc3ccccc3c(=O)n2-c2ccccc2)c2ccccc21`, the AC50 [5] was 8.71 µM (active), the EC50 [6] was 1.36 µM (active) and the IC50 (Nonstructural protein 1) was 50.5 µM (active).

In the case of `CCN(CC)C(=O)C(=O)c1cn(CC(=O)N2CCc3ccccc3C2)c2ccccc12`, the EC50 [3] is reported as > 50 µM (active).

In the case of `Cn1c(NC(=O)/C=C\c2ccccc2)cc(=O)n(C)c1=O`, the IC50 (Leucine aminopeptidase) is reported as 78.4 µM (active) and the IC50 [7] is reported as 7.1 µM (not active).

In the case of `Nc1ccc(C2=Nc3cccc4cccc(c34)N2)cc1`, the IC50 [8] is reported as 2.86 µM (active).

With `Oc1ccccc1O` [CATECHOL] the AC50 (Cytochrome P450 3A4 [2]) was 10 µM (inconclusive).

With `COC(=O)c1ccc(NC(=O)CO/N=C2\CCCc3nonc32)cc1` the EC50 [3] was > 50 µM (active).

For `OC(c1ccccn1)(c1ccccn1)c1ccccn1`, the IC50 (Nonstructural protein 1) was 10.9 µM (active).

With `CC1CCc2c(C(=O)Nc3nccs3)csc2C1` (centres undefined) the AC50 (Cytochrome P450 2D6) was 3.55 µM (inconclusive) and the IC50 (Protein skinhead-1) was > 100 µM (inactive).

For `C[C@@H]1CN([C@@H](C)CO)C(=O)c2cccc(NC(=O)Nc3ccc(C(F)(F)F)cc3)c2O[C@@H]1CN(C)Cc1ccc(C(=O)Nc2ccccc2N)cc1`, the AC50 [1] was 0.787 µM (active).

With `Cc1ccccc1N=C(S)N(CCN(C)C)C(C)c1ccccn1` (centres undefined) the IC50 (Nonstructural protein 1) was 64.5 µM (active).

With `O=C(NC(=S)Nc1cccc2c(O)cccc12)c1cccc(Br)c1` the IC50 (Protein skinhead-1) was > 100 µM (inactive).

With `O=C(Cn1c(C(F)(F)F)nc2ccccc21)c1ccc(F)cc1` the AC50 (Cytochrome P450 3A4 [9]) was 12.6 µM (inconclusive) and the IC50 (Protein skinhead-1) was > 100 µM (inactive).

With `C[C@@H]1CN([C@H](C)CO)C(=O)Cc2cc(NC(=O)Nc3ccc4c(c3)OCO4)ccc2O[C@@H]1CN(C)Cc1ccc(Oc2ccccc2)cc1` the AC50 [1] was 2.87 µM (active).

For `Cc1nnc(SCC(=O)Nc2cc(S(=O)(=O)N3CCCC3)ccc2Cl)s1`, the EC50 [3] was > 50 µM (active).

In the case of `COc1ccc(-c2cc(C(F)(F)F)c3c(=O)n(-c4ccccc4)[nH]c3n2)cc1`, the IC50 (Genome polyprotein) is reported as 44.2 µM (active) and the CC50 (Vero) is reported as > 40 µM (active).

In the case of `Cc1ccc(-c2cc(C(F)F)n3ncc(C(=O)N4CCN(c5cccc(C)c5C)CC4)c3n2)cc1`, the CC50 [10] is reported as 10.2 µM (active) and the IC50 (Protein skinhead-1) is reported as > 100 µM (inactive).

With `COCCN1Cc2cccc(C(=O)Nc3cccc(C)c3C)c2C1=O` the IC50 [8] was 6.79 µM (not active).

For `CCC12C=CCN3CCC4(c5ccc(OC)cc5N(C)C4[C@@](O)(C(=O)OC)C1OC(C)=O)C32` (some centres undefined), the AC50 (Cytochrome P450 3A4 [2]) was 3.98 µM (inconclusive).

With `COc1ccc(C2OCC3(COC(C)=O)C(C)C=C(C)C2C3C)cc1` (centres undefined) the AC50 (Cytochrome P450 3A4 [2]) was 15.8 µM (inconclusive).

For `CC(=O)OC1CC2C(C)(C)C(=O)[C@@H]3OC3[C@@]2(C)C2CC[C@]3(C)C(=CC(=O)OC3c3ccoc3)[C@]12C` (some centres undefined), the AC50 (Cytochrome P450 3A4 [2]) was 15.8 µM (inconclusive).

For `O=S(=O)(Nc1ncccn1)c1ccc(NC(=S)Nc2ccc(Cl)cc2)cc1`, the EC50 [3] was > 50 µM (active).

For `O=C(C[C@H]1CC[C@@H](NC(=O)c2ccccc2)[C@H](CO)O1)NCc1ccc(Oc2ccccc2)cc1`, the AC50 [11] was 4.3 µM (active), the AC50 [12] was 3.8 µM (active) and the AC50 [13] was 62.1 µM (active). For the same compound, the AC50 [14] was 0.349 µM (active).

For `COc1ccc(C(=O)c2oc3ccc(OC)cc3c2N)cc1`, the IC50 (Protein skinhead-1) was > 100 µM (inactive).

With `COc1cccc(NC(=O)c2cnc(SC)nc2)c1` the IC50 (cells) was 15.3 µM (active).

In the case of `Cc1ccc(S(=O)(=O)N2CCOCC2)cc1NC(=O)CNCc1ccccn1`, the IC50 (Nonstructural protein 1) is reported as 18 µM (active).

For `C[C@@H]1CN([C@@H](C)CO)C(=O)c2cccc(NC(=O)Nc3ccc4c(c3)OCO4)c2O[C@@H]1CN(C)Cc1ccc(C(=O)Nc2ccccc2N)cc1`, the AC50 [1] was 3.18 µM (active).

For `CO[C@@H](CN(C)S(=O)(=O)c1ccc(Cl)cc1)[C@H](C)CN([C@@H](C)CO)S(=O)(=O)c1cccc(Cl)c1`, the AC50 [11] was 8.73 µM (active), the AC50 [12] was 20 µM (active) and the AC50 [14] was 19.1 µM (active).

With `O=C1CSC(=S)N1c1cccc(O)c1` the EC50 [3] was > 50 µM (active).

For `Nc1nnc(Sc2ncccc2[N+](=O)[O-])s1`, the IC50 (cells) was 15.3 µM (active).

In the case of `Cc1ccc(SCC(=O)Nc2nnc[nH]2)cc1`, the IC50 [15] is reported as > 10 µM (inconclusive).

With `Cc1ccc(-n2ncc3c2CCCC3NC(=O)c2ccccc2N2CCOCC2)cc1C` (centres undefined) the AC50 [16] was 0.984 µM (active).

For `CNC[C@H]1Oc2c(NC(=O)Nc3ccc(OC)cc3)cccc2C(=O)N([C@H](C)CO)C[C@@H]1C`, the AC50 [1] was 20 µM (inactive).

With `CC(C)C#Cc1ccc2c(c1)O[C@@H](CN(C)C(=O)C1CCCCC1)[C@H](C)CN([C@H](C)CO)S2(=O)=O` the AC50 [12] was 21.2 µM (active) and the AC50 [13] was 21.3 µM (active).
